Laboratory results: patent publication US20080058330A1, “Compounds and Combinations Thereof for Inhibiting Beta-Amyloid Production and Methods of Use Thereof” (Roskamp Research LLC, priority 2006, published 2008)

Assays:
[1] = test system: 7W WT APP751 CHO cells; assay: Screening of dihydropyridine compounds of Table 2, Aβ1-40 and Aβ1-42 ELISA (Example 5); assay type: cell-based, Chinese hamster; settings: 3, 10, 30 and 100 μM, 24 hours (FIGS. 22A, 22B, 23A, 23B)
Experimental: Chinese hamster ovary (CHO) cells, stably transfected with human APP751 (7W WT APP751 CHO cells) were used. See, e.g., Koo and Squazzo, J. Biol. Chem., Vol. 269, Issue 26, 17386-17389, July, 1994. The cells were maintained in DMEM medium supplemented with 10% fetal bovine serum and IX mixture of penicillin/streptomycin/fungizone/glutamine mixture (Cambrex, Md.) geneticin as selecting agent in 75 cm^2 cell culture flasks.
The 7W WT APP751 CHO cells were plated in 24-well cell culture plates in quadruplicate, containing 1 ml of culture medium, and treated with various calcium channel blocker compounds for 4 hours, 24 hours or 48 hours at 37° C. and 5% CO2. All test compounds were diluted in dimethyl sulfoxide (DMSO) before being added to the cultured confluent 7W WT APP751 CHO cells. The culture medium was collected and diluted 5-fold for the 4 hours assay and 50-fold for the 24 hour assay before being assayed by ELISAs for Aβ1-40 and Aβ1-42, respectively. Concentrations of Aβ1-40 and Aβ1-42, expressed in pg/ml, were determined using commercially available ELISAs (Biosource, Calif.) in a colorimetric assay using labeled antibodies detected spectrophotometrically.
The screening of dihydropyridine compounds was conducted according to the procedure described in Example 1. Each compound was added to confluent cells to a final concentration of 3, 10, 30 or 100 μM and tested. Each of these compounds was added to confluent cells to a final concentration of 3 μM (noted as “C” in FIG. 24) or 10 μM (noted as “B” in FIG. 24).

[2] = test system: Tg APPsw mice; settings: Tg APPsw mice given the NSAID; correlating with decreased microglial activation; cited from earlier work

melting point	SMILES	concentration of Aβ1-40 or Aβ1-42 compared to control [1]	β-amyloid deposits, astrocytosis, and dystrophic neurites [2]
151 to 152.5 °C	CCOC(=O)C1=C(C)NC(C)=C(C(=O)OCC)C1c1ccccc1F [Example 2-27, Diethyl 4-(2-fluorophenyl)-1,4-dihydro-2,6-dimethylpyridine-3,5-dicarboxylate]	decreased	–
–	CC(C)Cc1ccc(C(C)C(=O)O)cc1 (stereo not drawn) [ibuprofen]	–	reduction
